The results in this text go back to patent US4628061A, “Prostaglandins” (National Research Development Corporation, priority 1981, dated 1986).

What all share (format): cell-based
Assay [1] deals with T1, thromboxane receptor sites (Homo sapiens, UniProt P21731).
T1 construct: Platelet-rich plasma is obtained from fresh, citrated human blood; endogenous in cells; host or cells: human platelets in platelet-rich plasma from fresh citrated blood
T1 sequence (P21731 1-343): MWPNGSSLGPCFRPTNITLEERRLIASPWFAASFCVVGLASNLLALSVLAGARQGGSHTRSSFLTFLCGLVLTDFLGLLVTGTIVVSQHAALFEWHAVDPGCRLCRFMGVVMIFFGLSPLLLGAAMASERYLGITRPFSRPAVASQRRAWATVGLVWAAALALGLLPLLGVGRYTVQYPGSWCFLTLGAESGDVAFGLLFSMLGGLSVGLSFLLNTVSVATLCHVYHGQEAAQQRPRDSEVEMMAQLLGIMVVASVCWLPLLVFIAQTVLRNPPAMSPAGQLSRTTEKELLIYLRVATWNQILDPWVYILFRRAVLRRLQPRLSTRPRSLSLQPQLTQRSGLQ
The experiment in a line: Human Platelet System (inhibition of aggregation by 11,9-(epoxymethano) PGH2 in platelet-rich plasma). Particulars: Gaddum-Schild Equation, agonist 11,9-(epoxymethano) PGH2, compound added 5 minutes before agonist, typical values, read-out: Affinity Constants (KB) Human Platelets (converted). As to the method: (§1) The compound of Example 2 and various of the compounds of Example 8 are tested in the following three systems.
Platelet-rich plasma is obtained from fresh, citrated human blood. Addition of the agonist 11,9-(epoxymethano) PGH2 (1×10^-7 to 5×10^-7 M) causes immediate aggregation recorded as an increase in light transmission (600 nm). In a second experiment the compound under test is added 5 minutes previous to the addition to the PGH2 analogue. The dose of the PGH2 analogue added is then increased to a level which gives a similar response to that obtained in the absence of antagonist.
(§2) In the case of each system, the affinity constant, KB, for the compound under test is calculated according to the Gaddum-Schild Equation (based on Law of Mass Action). [formula]

In assay [2] the target is T2, thromboxane receptor sites (Cavia porcellus, UniProt A0A286Y4I8).
T2 construct: from tissue; host or cells: guinea pig trachea, spiral strips
T2 sequence (A0A286Y4I8 1-347): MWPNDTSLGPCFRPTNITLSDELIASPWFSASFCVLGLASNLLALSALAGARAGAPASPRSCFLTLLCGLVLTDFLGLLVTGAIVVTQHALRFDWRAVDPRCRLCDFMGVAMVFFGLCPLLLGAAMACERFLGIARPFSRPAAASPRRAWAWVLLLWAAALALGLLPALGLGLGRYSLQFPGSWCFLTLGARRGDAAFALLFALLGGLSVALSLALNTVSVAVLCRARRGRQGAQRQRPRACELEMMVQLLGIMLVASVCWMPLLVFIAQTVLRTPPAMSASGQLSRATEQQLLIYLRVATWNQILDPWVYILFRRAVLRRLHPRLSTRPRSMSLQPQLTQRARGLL
The experiment in a line: Guinea Pig Trachea System (inhibition of tension response of spiral strips of trachea to 11,9-(epoxymethano) PGH2). Particulars: Gaddum-Schild Equation; agonist 11,9-(epoxymethano) PGH2; atropine sulphate and indomethacin present; compound added 50 minutes before agonist; 37° C; typical values; read-out: Affinity Constants (KB) Guinea Pig Trachea (converted). As for the experimental part: as §1
Guinea Pig Trachea System
Spiral strips of trachea are suspended in Kreb's-Henseleit solution, additionally containing atropine sulphate (2×10^-8 M) and indomethacin (10^-6), aerated with 95% O2 /5% CO2 and maintained at 37° C. Tension changes are recorded with a Grass FTO3 force transducer. Initially, cumulative dose response curves to the agonist 11,9-(epoxymethano) PGH2 are obtained (typically at the same concentrations as for the rabbit aorta system). In a second experiment, the compound under test is added 50 minutes previous to the addition of the series of agonist doses.
as §2

Assay [3] concerns the target T3, thromboxane receptor sites (Oryctolagus cuniculus, UniProt Q6WQI8).
T3 construct: contraction to 11,9-(epoxymethano) PGH2 (U-46619)
T3 sequence (Q6WQI8 1-233): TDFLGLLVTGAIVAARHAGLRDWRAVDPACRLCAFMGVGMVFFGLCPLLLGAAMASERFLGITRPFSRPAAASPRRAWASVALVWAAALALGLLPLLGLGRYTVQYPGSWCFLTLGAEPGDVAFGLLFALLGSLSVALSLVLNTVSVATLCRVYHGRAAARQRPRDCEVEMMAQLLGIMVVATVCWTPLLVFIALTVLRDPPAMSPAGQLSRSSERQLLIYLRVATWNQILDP
The assay can be described thus: Rabbit Aorta System (inhibition of tension response of spiral strips of thoracic aorta to 11,9-(epoxymethano) PGH2). Particulars: for Kb: Gaddum-Schild Equation, agonist 11,9-(epoxymethano) PGH2, compound added 50 minutes before agonist, 37° C, typical values, read-out: Affinity Constants (KB) Rabbit Aorta (converted). As for the experimental part:
as §1
Sprial strips of thoracic aorta are suspended in Kreb's-Henseleit solution aerated with 95% O2 /5% CO2 and maintained at 37° C. Tension changes are recorded with a Grass FTO3 force transducer. Initially, cumulative dose response curves to the agonist 11,9-(epoxymethano) PGH2 are obtained (typically at concentrations of 2×10^-9, 1×10^-8, 5×10^-8 and 2.5×10^-7 M). In a second experiment, the compound under test is added 50 minutes previous to the addition of the series of agonist doses.
as §2

SMILES strings stand for the structures.

For `O=C(O)CCC/C=C\C[C@H]1[C@H]2CC[C@H](C2)[C@@H]1CNC(=O)Nc1ccccc1` (relative stereo) [--CH2 NHCONHC6 H5, 5-endo-(6'-Carboxyhex-2'Z-enyl)-6-exo-[N-(phenylcarbamoyl)-aminomethyl]-bicyclo[2,2,1]heptane], the Kb in assay [1] is 3570 nM; in assay [2], 323 nM; in assay [3], 1000 nM. The “pure antagonist activity in the rabbit aorta system” value in assay [3] (in words) is “pure antagonist activity”.

Regarding `COc1ccc(NC(=O)NCCC2C3C=CC(C3)C2C/C=C\CCCC(=O)O)cc1` (centres unmarked) [--(CH2)2 NHCONHC6 H4 OCH3 (p)], the Kb in assay [2] was 145 nM; in assay [3] it was 833 nM.

Take `O=C(O)CCC/C=C\CC1C2C=CC(C2)C1CCNC(=O)Nc1ccccc1` (centres unmarked) [--(CH2)2 NHCONHC6 H5]: the Kb is 29400 nM in assay [1], 196 nM in assay [2] and 345 nM in assay [3].

Take `COc1ccc(NC(=S)NCCC2C3C=CC(C3)C2C/C=C\CCCC(=O)O)cc1` (centres unmarked) [--(CH2)2 NHCSNHC6 H4 OCH3 (p)]: the Kb in assay [1] is 12500 nM; in assay [3], 526 nM.

As for `COc1ccc(NC(=S)NC(C)CC2C3C=CC(C3)C2C/C=C\CCCC(=O)O)cc1` (centres unmarked) [--CH2 CH(CH3)NHCSNHC6 H4 OCH3 (p)], the figures for the Kb in assay [1], in assay [2] and in assay [3] were 5000 nM, 123 nM and 1050 nM, respectively.

On to `COc1ccc(NC(=S)NCC2C3C=CC(C3)C2C/C=C\CCCC(=O)O)cc1` (centres unmarked) [--CH2 NHCSNHC6 H4 OCH3 (p)], for which the Kb is 13900 nM in assay [1], 154 nM in assay [2] and 169 nM in assay [3].
